In PubChem BioAssay (NCI):
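Growth conditions: 96-well plates. Treatment: test compound, 48 hours, 5 concentrations. Analysis: linear interpolation between bracketing concentrations; unreached endpoints set to highest concentration. TGI marks complete inhibition of growth.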

Experiments:
Test in all cases: NCI-60 cell line screen, 48 h
[1] = test system: SNB-19 CNS
[2] = test system: HT29 colon
[3] = test system: SF-539 CNS
[4] = test system: OVCAR-3 ovarian
[5] = test system: HCT-15 colon
[6] = test system: MDA-N
[7] = test system: DU-145 prostate
[8] = test system: SK-OV-3 ovarian
[9] = test system: PC-3 prostate
[10] = test system: CCRF-CEM leukemia

CCOC(=O)C1S/C(=N\C(=N)N[N+](=O)[O-])N=C1C (centres undefined)
TGI [1]: > 100 µM
TGI [2]: > 100 µM
TGI [3]: > 100 µM
TGI [4]: > 100 µM
TGI [5]: > 100 µM

COC(C)(C)C1(O)CC[C@@H](C)CC1=O (some centres undefined)
TGI [6]: > 100 µM
TGI [1]: > 100 µM
TGI [2]: > 100 µM
TGI [3]: > 100 µM
TGI [7]: > 100 µM
TGI [8]: > 100 µM
TGI [4]: > 100 µM
TGI [5]: > 100 µM
TGI [9]: > 100 µM

CC(c1ccccc1)N1CCN(C(C)c2ccccc2)CC1 (centres undefined)
TGI [6]: > 100 µM
TGI [1]: > 100 µM
TGI [2]: > 100 µM
TGI [7]: > 100 µM
TGI [4]: > 100 µM
TGI [5]: > 100 µM
TGI [9]: > 100 µM

O=C1C=C/C(=N\N=C(c2ccccc2)c2ccccc2)O1
TGI [6]: > 10 µM
TGI [10]: > 10 µM
TGI [2]: > 10 µM
TGI [7]: > 10 µM
TGI [8]: > 10 µM
TGI [5]: > 10 µM
TGI [9]: > 10 µM

COc1cc(OC)cc(C(=O)CC(=O)c2cc(OC)cc(OC)c2)c1
TGI [6]: > 100 µM
TGI [10]: > 100 µM
TGI [1]: > 100 µM
TGI [3]: > 100 µM
TGI [7]: > 100 µM
TGI [8]: > 100 µM
TGI [4]: > 100 µM
TGI [5]: > 100 µM
TGI [9]: > 100 µM

CC(=O)NC1C(OCc2ccccc2)OC(CO)C(O)C1OCC(=O)N[C@@H](C)C(=O)N[C@H](CCC(=O)NCCCNc1c2ccccc2nc2cccc([N+](=O)[O-])c12)C(N)=O (some centres undefined)
TGI [6]: 0.102 µM
TGI [10]: > 100 µM
TGI [1]: 0.552 µM
TGI [2]: 0.199 µM
TGI [3]: 0.279 µM
TGI [8]: 0.99 µM
TGI [4]: 0.566 µM
TGI [5]: 0.376 µM
TGI [9]: 0.493 µM

COc1ccc(C(=O)/C=C/c2ccc(OCCCOc3ccc(/C=C/C(=O)c4ccc(OC)cc4)cc3)cc2)cc1
TGI [6]: > 100 µM
TGI [10]: > 100 µM
TGI [1]: > 100 µM
TGI [2]: > 100 µM
TGI [3]: 72.6 µM
TGI [7]: > 100 µM
TGI [8]: > 100 µM
TGI [5]: > 100 µM
TGI [9]: > 100 µM

CCOC(=O)c1c(-c2ccc(O)c(OC)c2)c(C#N)c(=S)n(C2OC(CO)C(O)C(O)C2O)c1-c1ccccc1 (centres undefined)
TGI [6]: > 100 µM
TGI [10]: > 100 µM
TGI [1]: > 100 µM
TGI [2]: > 100 µM
TGI [7]: > 100 µM
TGI [4]: > 100 µM
TGI [5]: > 100 µM
TGI [9]: > 100 µM

Cc1ccc(/C=N\NC2c3cc(Cl)ccc3Nc3nc(=O)[nH]c(C)c32)cc1 (centres undefined)
TGI [10]: > 100 µM
TGI [1]: > 100 µM
TGI [2]: > 100 µM
TGI [3]: > 100 µM
TGI [8]: > 100 µM
TGI [4]: > 100 µM

NS(=O)(=O)c1ccc(NC(=S)/N=C/C2=C(O)c3ccccc3C2=O)cc1
TGI [6]: > 100 µM
TGI [10]: > 100 µM
TGI [1]: > 100 µM
TGI [3]: > 100 µM
TGI [7]: > 100 µM
TGI [8]: > 100 µM
TGI [4]: > 100 µM
TGI [5]: > 100 µM
TGI [9]: > 100 µM

O=C(O)[C@H]1CCCN1CP(=O)(O)CN1CCC[C@@H]1C(=O)O
TGI [6]: > 100 µM
TGI [10]: > 100 µM
TGI [1]: > 100 µM
TGI [2]: > 100 µM
TGI [7]: > 100 µM
TGI [8]: > 100 µM
TGI [4]: > 100 µM
TGI [5]: > 100 µM
TGI [9]: > 100 µM

O=C(O)C(Cl)(Cl)Cl
TGI [10]: > 100 µM
TGI [1]: > 100 µM
TGI [3]: > 100 µM
TGI [8]: > 100 µM
TGI [5]: > 100 µM

Cc1c(/C=N\NC(=S)NCCNC(=S)N/N=C\c2c(C)n(C)n(-c3ccccc3)c2=O)c(=O)n(-c2ccccc2)n1C
TGI [1]: > 100 µM
TGI [2]: > 100 µM
TGI [3]: > 100 µM
TGI [7]: > 100 µM
TGI [8]: > 100 µM
TGI [4]: > 100 µM
TGI [5]: > 100 µM
TGI [9]: > 100 µM

OC[C@H]1O[C@@H]2O[C@@](COCc3ccccc3)([C@H](OCc3ccccc3)[C@H]2O)[C@@H]1OCc1ccccc1
TGI [10]: 35.4 µM
TGI [1]: 32.4 µM
TGI [2]: 17.3 µM
TGI [3]: 32.9 µM
TGI [7]: 30.1 µM
TGI [8]: 27.9 µM
TGI [4]: 27.7 µM
TGI [5]: 36.1 µM
TGI [9]: 28 µM

O=C(O)COc1ccccc1C(=O)Nc1ccccc1
TGI [10]: > 100 µM
TGI [1]: > 100 µM
TGI [2]: > 100 µM
TGI [3]: > 100 µM
TGI [8]: > 100 µM
TGI [4]: > 100 µM
TGI [5]: > 100 µM

C/C(C[n+]1ccccc1)=N\N=C(N)N
TGI [6]: > 100 µM
TGI [10]: > 100 µM
TGI [1]: > 100 µM
TGI [2]: > 100 µM
TGI [7]: > 100 µM
TGI [8]: > 100 µM
TGI [4]: > 100 µM
TGI [5]: > 100 µM
TGI [9]: > 100 µM

O=C1OC(C2Cc3ccc4ccccc4c3C2=O)c2ccccc21 (centres undefined)
TGI [6]: > 100 µM
TGI [10]: > 100 µM
TGI [1]: 92.6 µM
TGI [3]: 56.5 µM
TGI [7]: > 100 µM
TGI [4]: 98.1 µM
TGI [5]: > 100 µM
TGI [9]: > 100 µM

O=C1CC2(CCC(O)(c3ccc4ccccc4c3)C(C(=O)c3ccc4ccccc4c3)C2)C(=O)c2ccccc2N1 (centres undefined)
TGI [10]: > 100 µM
TGI [1]: > 100 µM
TGI [2]: > 100 µM
TGI [3]: > 100 µM
TGI [7]: > 100 µM
TGI [8]: > 100 µM
TGI [4]: > 100 µM
TGI [9]: > 100 µM

O=C(O)CCNc1ncnc2nc[nH]c12
TGI [6]: > 100 µM
TGI [10]: > 100 µM
TGI [1]: > 100 µM
TGI [2]: > 100 µM
TGI [7]: > 100 µM
TGI [8]: > 100 µM
TGI [4]: > 100 µM
TGI [5]: > 100 µM
TGI [9]: > 100 µM

CC(C)c1cc2c(c(O)c1O)[C@@]1(C(=O)O)CCCC(C)(C)[C@@H]1CC2
TGI [6]: > 100 µM
TGI [10]: 42.3 µM
TGI [2]: 30.7 µM
TGI [3]: 38.8 µM
TGI [7]: > 100 µM
TGI [8]: > 100 µM
TGI [4]: 57.3 µM
TGI [5]: > 100 µM
TGI [9]: 33.9 µM

CC(O)CNC(=O)C(C)Oc1ccc(OCC2CCCCC2)cc1 (centres undefined)
TGI [10]: > 100 µM
TGI [1]: > 100 µM
TGI [2]: > 100 µM
TGI [3]: > 100 µM
TGI [8]: > 100 µM
TGI [4]: > 100 µM
TGI [5]: > 100 µM

CN1CCOC1c1ccccc1O (centres undefined)
TGI [6]: > 100 µM
TGI [10]: > 100 µM
TGI [1]: > 100 µM
TGI [2]: > 100 µM
TGI [3]: > 100 µM
TGI [8]: > 100 µM
TGI [4]: > 100 µM
TGI [5]: > 100 µM
TGI [9]: > 100 µM

Nc1ccc(N=Nc2c(S(=O)(=O)O)cc3ccccc3c2S(=O)(=O)O)cc1
TGI [6]: > 100 µM
TGI [10]: > 100 µM
TGI [1]: > 100 µM
TGI [2]: > 100 µM
TGI [7]: > 100 µM
TGI [4]: > 100 µM
TGI [5]: > 100 µM
TGI [9]: > 100 µM

O=c1oc2cc(O)ccc2c(O)c1C(c1ccccc1)c1c(O)c2ccc(O)cc2oc1=O
TGI [6]: > 100 µM
TGI [10]: > 100 µM
TGI [2]: > 100 µM
TGI [3]: > 100 µM
TGI [7]: > 100 µM
TGI [8]: > 100 µM
TGI [4]: > 100 µM
TGI [5]: > 100 µM
TGI [9]: > 100 µM

O=C(NCP(=O)(Oc1ccccc1)Oc1ccccc1)OCc1ccccc1
TGI [10]: > 100 µM
TGI [1]: > 100 µM
TGI [2]: > 100 µM
TGI [8]: > 100 µM
TGI [4]: > 100 µM
TGI [5]: > 100 µM
TGI [9]: > 100 µM
